Experimental data as given in patent publication US6323203A, “Composition and method for treating diabetes” (Beyer; Camille F., priority 2000, dated 2001).
Where two headings read alike, the source gives them in different places.

Columns and labels:
[1] = tested on: cutaneous vasomotor reaction of blush area; assay: Cutaneous vasomotor response (and tolerability) after a single oral dose in 8 male volunteers; type: in vivo, human; design: key to Cutaneous vasomotor response, Score (0-6), Mean: graded 0 = not observed to 6 = most severe reaction
Method: (§1) Eight male nonsmoking subjects aged 24-32 participated. They were normal by history, physical exam and routine laboratory analysis of blood and urine.
(§2) This was a single-blind, three-phase crossover study beginning after a 10-hour fast at 8 a.m., designated time 0 (control), when the first venipuncture occurred. In phase I, three capsules of lactose were given orally, followed by venipunctures 2 and 4 h later. In phase II, 1 week later, after a control blood specimen drawn at 8 a.m., PZG (900 mg) was given orally and blood specimens taken 2 and 4 h thereafter. In phase III, 3 weeks later, after a control blood specimen drawn at 8 a.m., PZA (300 mg) was given orally and blood specimens taken 2 and 4 h later.
(§3) Comparisons of mean serum or plasma concentrations ±SD during placebo, PZG and PZA phases are presented in Table 1 for glucose, insulin, C-peptide, free fatty acids and norepinephrine. Comparisons of mean serum or plasma concentrations ±SD during these three phases are presented in Table 2 for triglycerides, VLDL, LDL, HDL, total cholesterol, fibrinogen and serum PZG and PZA concentrations. Note the close agreement of serum PZG and PZA concentrations at 2 h and also at 4 h after their administration. Table 3 compares mean serum or plasma concentrations ±SD of renin, angiotensin I, adlosterone, potassium, urea and uric acid during the three phases of the study. […] In an earlier pilot experiment to determine serum PZA concentrations following different PZA doses, a first subject ([…]) after a single oral dose of 300 mg PZA developed unexpectedly a typical cutaneous vasomotor reaction of their blush area which included flushed, warm skin of face, neck and shoulders with a mild rash for about 90 min. […] They described the reaction variously as warm redness or flushed head and neck, rash and itching (Table 4). These reactions, which were graded from 6 (most severe) to 0 (not observed), lasted from 30 min in 3 subjects to 4 h in 1 subject. […] No significant correlation occurred between score of reaction (effect+duration) and PZA peak blood concentration among the subjects (r=0.281) (Table 4).
(§4) ^1 Score = warm + redness (flush) + rash + itching + duration. Duration
(§5) as 0.5 h, 1, 2, 4 h (reaction and duration as noted).

[2] = Single-blind, three-phase crossover study of single oral doses: blood analyses of metabolic, hormonal and electrolyte parameters in 8 normal male subjects; type: in vivo, human; conditions: for Free fatty acids, mean / Angiotensin I, mean / Renin, mean / C-peptide, mean / Potassium, mean / Uric acid, mean / Aldosterone, mean / Insulin, mean / Urea, mean / VLDL Cholesterol, mean / Norepinephrine, mean / HDL Cholesterol, mean / Glucose, mean / Triglycerides, mean / LDL Cholesterol, mean / Total cholesterol, mean / Fibrinogen, mean: 8 normal subjects; for Free fatty acids, mean: 0 h: PZG 0.47, PZA 0.51; for Angiotensin I, mean: 0 h: PZG 0.84, PZA 0.66; for Renin, mean: 0 h: PZG 1.0, PZA 1.5; for C-peptide, mean: 0 h: PZG 1.1, PZA 1.2; for Potassium, mean: 0 h: PZG 4.2, PZA 4.0; for Uric acid, mean: 0 h: PZG 6.0, PZA 5.6; for Aldosterone, mean: 0 h: PZG 8.6, PZA 13.6; for Insulin, mean: 0 h: PZG 8.8, PZA 5.4; for Urea, mean: 0 h: PZG 17, PZA 17; for VLDL Cholesterol, mean: 0 h: PZG 20, PZA 17; for Norepinephrine, mean: 0 h: PZG 37, PZA 75; for HDL Cholesterol, mean: 0 h: PZG 41, PZA 46; for Glucose, mean: 0 h: PZG 87, PZA 84; for Triglycerides, mean: 0 h: PZG 101, PZA 86; for LDL Cholesterol, mean: 0 h: PZG 107, PZA 104; for Total cholesterol, mean: 0 h: PZG 168, PZA 167; for Fibrinogen, mean: 0 h: PZG 266, PZA 293
Method: A three-phase study, where single oral doses of placebo, followed in one week by 900 mg of pyrazinoylguanidine (PZG), followed in three weeks by 300 mg of pyrazinoic acid (PZA), involving normal male subjects, was carried out to compare and contrast metabolic effects of single doses of PZG and PZA. A purpose of the study was to determine whether the metalbolic effects observed after 3 and also 21 days of PZG administration in patients with renal disease or with diabetes also occurred after a single oral dose. […]
as §1, §2
(§6) Each phase consisted of taking three capsules, each containing 300 mg. In phase I, all three capsules were of lactose; in phase II, all three were PZG; and in phase III, two capsules were lactose and one PZA. All capsules appeared indistinguishable and were given to each subject who swallowed them with water in the presence of an investigator.
(§7) Once obtained, blood specimens were immediately spun. Refrigerated serum or plasma was analyzed within 24 h for glucose, insulin, electrolytes, blood urea nitrogen, creatinine, liver function tests, triglycerides, total cholesterol, high-density lipoprotein (HDL) cholesterol, low-density lipoprotein (LDL) cholesterol, very-low-density lipoprotein (VLDL) cholesterol, free fatty acids, and fibrinogen.
Repeated measures of analysis of variance were used to compare each subject's placebo, PZG and PZA phase. Two-tailed Student t-tests were performed between groups. All results are reported as means ±SD. Statistical significance was considered when p<0.05. The results are illustrated in Tables 1-4.

[3] = tested on: cutaneous vasomotor reaction of blush area; assay: Exploratory (pilot) study: serum concentrations and cutaneous vasomotor reaction after different oral PZA doses in two subjects; type: in vivo, human
Method: as §3, §4, §5

[4] = as above; type: in vivo, human; conditions: human, serum, po, exploratory study; for concentration at 1 h: read-out: Serum PZG, 1 h; for concentration at 2 h: read-out: Serum PZG, 2 h
Method: as §3, §4, §5

[5] = Serum concentration of PZG or PZA after single oral dose in the crossover study; type: in vivo; conditions: human, 300 mg
Method: as §1, §2, §6, §7

[6] = in vivo; cited from earlier work
[7] = 2 h after single oral dose (PZG 900 mg, PZA 300 mg)
[8] = 4 h after single oral dose (PZG 900 mg, PZA 300 mg)

Potassium, mean [2, 7]: 4.6 meg/l | Uric acid, mean [2, 7]: 6.3 mg/dL | Potassium, mean [2, 8]: 4.3 meg/l | Uric acid, mean [2, 8]: 6.2 mg/dL | effect on potassium blood concentrations ([2]; single oral dose, within 4 h): not changed | effect on uric acid plasma concentration ([2]; single oral dose, within 4 h): increased | Cutaneous vasomotor response, Score (0-6), exploratory study ([3]; subject two, single oral dose 600 mg): 0 | cutaneous vasomotor reaction ([3]; subject two, single oral dose of 600 mg PZA): no cutaneous vasomotor reaction | Cutaneous vasomotor response, Score (0-6), exploratory study ([3]; subject, single oral dose 300 mg): 6 | duration of cutaneous vasomotor reaction ([3]; subject, single oral dose of 300 mg PZA, face, neck and shoulders with mild rash): about 90 min | half-life ([4]; subject two, 600 mg): 5 h | concentration at 1 h ([4]; subject two, 600 mg): 10200 ng/mL | concentration at 2 h ([4]; subject two, 600 mg): 12000 ng/mL | half-life ([4]; subject, 300 mg): 3 h | concentration at 1 h ([4]; subject, 300 mg): 6200 ng/mL | concentration at 2 h ([4]; subject, 300 mg): 4800 ng/mL | concentration at 2 h ([5]; 2 h after single oral dose (PZG 900 mg, PZA 300 mg), 8 normal subjects, read-out: Serum concentration of PZG or PZA, mean): 5000 ng/mL | concentration at 4 h ([5]; 4 h after single oral dose (PZG 900 mg, PZA 300 mg), 8 normal subjects): 3000 ng/mL | concentration at 2 h ([5]; single 300-mg dose of PZA, individual subjects one, read-out: PZA 2-hour serum conc): 5600 ng/mL | concentration at 2 h ([5]; single 300-mg dose of PZA, mean of 8 male volunteers, read-out: PZA 2-hour serum conc, Mean): 4960 ng/mL
SMILES: O=C(O)c1cnccn1 [PZA, pyrazinoic acid]
onset of cutaneous reaction relative to peak serum concentration ([1]; 300 mg PZA): the onset preceded peak serum PZA concentrations | subjects that responded with a cutaneous vasomotor reaction ([1]; 300 mg PZA): 7 of 8 | seriousness of cutaneous vasomotor reactions ([1]; 300 mg PZA, 8 subjects): None of the cutaneous vasomotor reactions was serious enough to interfere with participation in the study | subjects without cutaneous vasomotor reaction ([1]; 300 mg PZA, 8 subjects): One subject among the 8 had no reaction | duration of cutaneous vasomotor reaction (longest) ([1]; 300 mg PZA, in 1 subject): 4 h | duration of cutaneous vasomotor reaction (shortest) ([1]; 300 mg PZA, in 3 subjects): 30 min | effect on blush area ([1]; PZA): transiently stimulate | Cutaneous vasomotor response, Score (0-6), Mean ([1]; single 300-mg dose of PZA, mean of 8 male volunteers): 3.25 | effect on mean values for serum glucose, insulin, C-peptide, triglycerides and free fatty acids ([2]; 0, 2 and 4 hours after administration): decreased | Free fatty acids, mean [2, 7]: 0.10 meq/l | Angiotensin I, mean [2, 7]: 0.75 ng/ml per h | Renin, mean [2, 7]: 1.7 ng/ml per h | C-peptide, mean [2, 7]: 1.0 ng/mL | Aldosterone, mean [2, 7]: 12.3 ng/dL | Insulin, mean [2, 7]: 3.7 μlU/ml | Urea, mean [2, 7]: 17 mg/dL | VLDL Cholesterol, mean [2, 7]: 15 mg/dL | Norepinephrine, mean [2, 7]: 61 pg/mL | HDL Cholesterol, mean [2, 7]: 41 mg/dL | Glucose, mean [2, 7]: 85 mg/dL | Triglycerides, mean [2, 7]: 77 mg/dL | LDL Cholesterol, mean [2, 7]: 126 mg/dL | Total cholesterol, mean [2, 7]: 179 mg/dL | Fibrinogen, mean [2, 7]: 278 mg/dL | Free fatty acids, mean [2, 8]: 0.09 meq/l | Angiotensin I, mean [2, 8]: 0.73 ng/ml per h | Renin, mean [2, 8]: 2.1 ng/ml per h | C-peptide, mean [2, 8]: 0.7 ng/mL | Aldosterone, mean [2, 8]: 12.5 ng/dL | Insulin, mean [2, 8]: 3.7 μlU/ml | Urea, mean [2, 8]: 16 mg/dL | VLDL Cholesterol, mean [2, 8]: 14 mg/dL | Norepinephrine, mean [2, 8]: 67 pg/mL | HDL Cholesterol, mean [2, 8]: 45 mg/dL | Glucose, mean [2, 8]: 80 mg/dL | Triglycerides, mean [2, 8]: 69 mg/dL | LDL Cholesterol, mean [2, 8]: 109 mg/dL | Total cholesterol, mean [2, 8]: 168 mg/dL | Fibrinogen, mean [2, 8]: 278 mg/dL | effect on plasma concentrations of nonesterified fatty acids ([2]; PZA (Table 1)): reduce | effect on insulin, C-peptide, free fatty acids and triglyceride serum concentrations ([2]; at equivalent plasma concentrations of PZG and PZA): reduced | effect on LDL, HDL and total cholesterol ([2]; single oral dose, within 4 h): not altered systematically | effect on very-low-density lipoprotein (VLDL) ([2]; single oral dose, within 4 h): decreased | effect on plasma norepinephrine ([2]; single oral dose, not statistically significant): did not elevate | effect on serum triglycerides [6]: lower serum triglycerides | effect on uric acid blood concentrations [6]: increase uric acid blood concentrations
